The source of these data is patent US9018258B2, “Substituted 1-benzylcycloalkylcarboxylic acids and the use thereof” (Bayer Intellectual Property GmbH, priority 2010, dated 2015).

One experiment deals with T1, GAL4-PPARα (Homo sapiens, UniProt Q07869).
T1 construct: expressed in transfected cells
T1 sequence (Q07869 167-468): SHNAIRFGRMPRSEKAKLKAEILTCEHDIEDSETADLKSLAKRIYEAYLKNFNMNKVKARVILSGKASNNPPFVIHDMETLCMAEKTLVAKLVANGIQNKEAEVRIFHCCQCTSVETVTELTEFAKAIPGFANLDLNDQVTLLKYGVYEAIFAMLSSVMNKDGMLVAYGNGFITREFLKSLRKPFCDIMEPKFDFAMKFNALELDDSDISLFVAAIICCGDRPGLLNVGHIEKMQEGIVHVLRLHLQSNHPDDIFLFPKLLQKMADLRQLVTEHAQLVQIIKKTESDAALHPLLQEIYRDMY
The experiment in a line: Cellular PPAR transactivation assay, GAL4-PPARα chimera in CHO-K1 cells. The class given is cell-based. The note with it: for Emax: CHO-K1, maximum effect relative to reference compound (Example 73 of EP 1 452 521-A1 = 100%), read-out: PPARα efficacy; for EC50: CHO-K1 cells, luciferase reporter, 6 h stimulation. Put shortly: (§1)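 CHO-K1 cells stably expressing GAL4 DNA-binding domain fused to the human PPAR ligand-binding domain (α aa 167-468, γ aa 203-506, δ aa 138-442) plus a GAL4-driven firefly luciferase reporter. Compounds added in serum-free medium for 6 h; EC50 from luminescence curves. Efficacy in % of a pan-PPAR agonist reference set as 100%.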
Background: A reporter such as luciferase makes a cellular process visible.

Experiment [1] has as its target T2, soluble guanylate cyclase (sGC) (Rattus norvegicus, UniProt P20595).
T2 construct: made in house; host or cells: Sf9 insect cells (baculovirus)
The experiment in a line: Stimulation of sGC enzyme activity (PPi detection, luciferase). The note with it: sGC enzyme in vitro; for EC50: read-out: EC50 (concentration at 50% of maximum efficacy), activating action at the sGC enzyme. The class given is biochemical. The procedure: Soluble guanylate cyclase (sGC) converts on stimulation GTP into cGMP and pyrophosphate (PPi). PPi is detected with the aid of the assay described below. The signal produced in the assay increases as the reaction progresses and serves as a measure of the sGC enzyme activity under the given stimulation.
To carry out the assay, 29 μl of enzyme solution [0-10 nM soluble guanylate cyclase (prepared according to Honicka et al., J. Mol. Med. 77, 14-23 (1999)) in 50 mM TEA, 2 mM MgCl2, 0.1% BSA (fraction V), 0.005% Brij®, pH 7.5] are initially introduced into a microplate, and 1 μl of the substance to be tested (as a serially diluted solution in DMSO) is added. The mixture is incubated at room temperature for 10 min. Then 20 μl of detection mix [1.2 nM Firefly Luciferase (Photinus pyralis luciferase, Promega), 29 μM dehydroluciferin (prepared according to Bitler & McElroy, Arch. Biochem. Biophys. 72, 358 (1957)), 122 μM luciferin (Promega), 153 μM ATP (Sigma) and 0.4 mM DTT (Sigma) in 50 mM TEA, 2 mM MgCl2, 0.1% BSA (fraction V), 0.005% Brij®, pH 7.5] are added. The enzyme reaction is started by adding 20 μl of substrate solution [1.25 mM guanosine 5′-triphosphate (Sigma) in 50 mM TEA, 2 mM MgCl2, 0.1% BSA (fraction V), 0.005% Brij®, pH 7.5] and measured continuously in a luminometer. The extent of the stimulation by the substance to be tested can be determined relative to the signal of the unstimulated reaction.
The activation of haem-free guanylate cyclase is examined by addition of 25 μM of 1H-1,2,4-oxadiazolo[4,3-a]quinoxalin-1-one (ODQ) to the enzyme solution and subsequent incubation for 30 minutes and compared to the stimulation of the native enzyme.

A further experiment deals with T3, GAL4-PPARγ (Homo sapiens, UniProt P37231).
T3 construct: PPARγ (amino acids 203-506); expressed in transfected cells
T3 sequence (P37231 203-505 limits assumed): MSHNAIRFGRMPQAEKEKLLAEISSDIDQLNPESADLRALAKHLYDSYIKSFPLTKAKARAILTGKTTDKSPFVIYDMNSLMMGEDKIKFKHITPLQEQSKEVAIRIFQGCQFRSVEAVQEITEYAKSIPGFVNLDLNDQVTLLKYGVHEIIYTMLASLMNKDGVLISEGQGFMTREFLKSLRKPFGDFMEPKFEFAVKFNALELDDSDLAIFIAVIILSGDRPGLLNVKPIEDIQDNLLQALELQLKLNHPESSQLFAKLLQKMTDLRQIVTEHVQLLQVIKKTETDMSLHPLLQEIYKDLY
The experiment in a line: Cellular PPAR transactivation assay, GAL4-PPARγ chimera in CHO-K1 cells. The class given is cell-based. The conditions noted are these: for Emax: CHO-K1, maximum effect relative to reference compound (Example 73 of EP 1 452 521-A1 = 100%), read-out: PPARγ efficacy; for EC50: CHO-K1 cells, luciferase reporter, 6 h stimulation. Put shortly: as §1

T2 sequence (P19686 whole entry partner): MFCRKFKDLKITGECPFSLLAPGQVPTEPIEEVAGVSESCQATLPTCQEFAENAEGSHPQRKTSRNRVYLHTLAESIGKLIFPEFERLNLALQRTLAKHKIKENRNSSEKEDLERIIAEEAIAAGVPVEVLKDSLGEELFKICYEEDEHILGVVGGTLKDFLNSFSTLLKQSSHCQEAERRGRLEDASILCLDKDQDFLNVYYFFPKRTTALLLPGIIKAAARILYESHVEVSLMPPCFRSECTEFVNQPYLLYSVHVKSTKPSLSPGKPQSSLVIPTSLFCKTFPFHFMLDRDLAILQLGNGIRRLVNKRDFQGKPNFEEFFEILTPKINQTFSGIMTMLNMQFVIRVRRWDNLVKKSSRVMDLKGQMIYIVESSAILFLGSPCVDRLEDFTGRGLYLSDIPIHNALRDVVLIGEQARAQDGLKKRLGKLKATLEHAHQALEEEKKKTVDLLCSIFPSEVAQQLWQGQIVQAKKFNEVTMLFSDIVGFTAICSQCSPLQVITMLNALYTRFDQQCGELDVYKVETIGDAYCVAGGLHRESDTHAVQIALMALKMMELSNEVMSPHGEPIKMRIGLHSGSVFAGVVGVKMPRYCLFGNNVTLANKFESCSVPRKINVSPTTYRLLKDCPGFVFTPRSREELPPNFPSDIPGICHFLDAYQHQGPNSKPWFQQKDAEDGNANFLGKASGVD
T2 sequence (P20595 whole entry): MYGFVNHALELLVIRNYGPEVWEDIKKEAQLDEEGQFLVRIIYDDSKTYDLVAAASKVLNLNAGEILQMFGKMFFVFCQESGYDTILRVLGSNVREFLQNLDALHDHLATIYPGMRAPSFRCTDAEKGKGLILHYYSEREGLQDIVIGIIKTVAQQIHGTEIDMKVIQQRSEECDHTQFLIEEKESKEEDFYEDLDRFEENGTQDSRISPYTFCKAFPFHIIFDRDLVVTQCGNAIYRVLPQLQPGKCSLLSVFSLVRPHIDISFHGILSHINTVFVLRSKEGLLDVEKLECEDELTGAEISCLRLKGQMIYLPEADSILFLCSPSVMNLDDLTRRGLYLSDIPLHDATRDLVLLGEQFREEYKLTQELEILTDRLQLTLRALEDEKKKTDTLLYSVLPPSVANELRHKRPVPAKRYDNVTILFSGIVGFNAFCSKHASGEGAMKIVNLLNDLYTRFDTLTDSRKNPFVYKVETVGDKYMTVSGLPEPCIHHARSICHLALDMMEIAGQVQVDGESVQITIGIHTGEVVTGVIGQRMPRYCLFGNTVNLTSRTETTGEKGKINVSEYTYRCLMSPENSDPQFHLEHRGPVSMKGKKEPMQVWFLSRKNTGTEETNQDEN

As to `CCOC(c1ccc(Cl)c(NC(=O)[C@H](c2ccc(Cl)cc2)[C@@H](C)C(F)(F)F)c1)C1(C(=O)O)CC1` (single isomer, unassigned) [Example 101], on GAL4-PPARα, the Emax was 0% and the EC50 was over 10 µM. For the same compound, in experiment [1], the “MEC (minimum effective concentration), activating action at the sGC enzyme” value (“MEC (minimum effective concentration)” for short) was 0.7 nM and the EC50 stood at 0.0046 µM. Moreover, at GAL4-PPARγ, the Emax came out at 0% and the EC50 is over 10 µM.
For the compound `[2H]C([2H])([2H])OC(c1ccc(Cl)c(NC(=O)[C@H](c2ccc(Cl)cc2)[C@@H](C)C(F)(F)F)c1)C1(C(=O)O)CC1` (single isomer, unassigned; (+)) [Example 99], at GAL4-PPARα, the Emax was determined as 0% and the EC50 is over 10 µM. In experiment [1], the “MEC (minimum effective concentration)” value turned out to be 4.1 nM and the EC50 came to 0.053 µM. In addition, on GAL4-PPARγ, the Emax was 0% and the EC50 was over 10 µM.
Turning to `C[C@H]([C@H](C(=O)Nc1cc(CC2(C(=O)O)CC2)ccc1Cl)c1ccc(Cl)c(F)c1)C(F)(F)F` [Example 30, (+)-1-(4-chloro-3-{[(2S,3R)-2-(4-chloro-3-fluoro-phenyl)-4,4,4-trifluoro-3-methylbutanoyl]amino}-benzyl)cyclopropanecarboxylic acid], at GAL4-PPARα, the Emax is 0% and the EC50 is over 10 µM. Further, in experiment [1], the “MEC (minimum effective concentration)” value turned out to be 0.6 nM and the EC50 came to 0.0076 µM. In addition, at GAL4-PPARγ, the Emax stood at 20% and the EC50 came to 2.3 µM.
Take `C[C@H]([C@H](C(=O)Nc1cc(CC2(C(=O)O)CC2)ccc1Cl)c1ccc(Cl)cc1)C(F)(F)F` [Example 50, (+)-1-(4-Chloro-3-{[(2S,3R)-2-(4-chlorophenyl)-4,4,4-trifluoro-3-methylbutanoyl]amino}benzyl)-cyclopropanecarboxylic acid]: on GAL4-PPARα, the Emax is 0% and the EC50 is over 10 µM. In experiment [1], the “MEC (minimum effective concentration)” value is listed as 0.7 nM and the EC50 turned out to be 0.0073 µM. Moreover, at GAL4-PPARγ, the Emax is 45% and the EC50 came to 3 µM.
